Read-outs that look alike come from different tables or passages of the source.
How the values were obtained:
Assay type in all cases: biochemical
PAK1 = PAK1 (Homo sapiens, UniProt Q13153); assay: In vitro PAK inhibition assay (Z'-LYTE, SelectScreen), PAK1; conditions: read-out: PAK1 IC50
Protocol: (§1) Compounds are screened in 1% DMSO (final) in the well. For 10 point titrations, 3-fold serial dilutions are conducted. All Peptide/Kinase Mixtures are diluted to a 2× working concentration in the appropriate Kinase Buffer
The 2×PAK1/Ser/Thr 19 mixture is prepared in 50 mM HEPES pH 7.5, 0.01% BRIJ-35, 10 mM MgCl2, 1 mM EGTA.
(§2) 1. Add the following solutions to a well in a 384-well plate: • 2.5 μL of 4× Test Compound OR (100 nL 100× Test Compound plus 2.4 μL kinase buffer) • 5 μL of 2× Peptide/Kinase (PAK) Mixture • 2.5 μL of 4×ATP Solution
(§3) 3. Incubate the PAK Kinase Reaction at room temperature for 60-minutes
(§4) 4. Add 5 μL of Development Reagent Solution to each well
(§5) 6. Incubate the Development Reaction for 60-minutes
(§6) 7. Determine the fluorescence using a fluorescence plate reader
(§7) SelectScreen® Kinase Profiling Service uses XLfit from IDBS.
(§8) The representative IC50 value with a known inhibitor for each kinase was determined at the ATP bin nearest to the ATP Km app.

PAK2 (PAK65) = PAK2 (PAK65) (Homo sapiens, UniProt Q13177); assay: In vitro PAK inhibition assay (Z'-LYTE, SelectScreen), PAK2; conditions: read-out: PAK2 IC50
Protocol: as §1
The 2×PAK2 (PAK65)/Ser/Thr 20 mixture is prepared in 50 mM HEPES pH 7.5, 0.01% BRIJ-35, 10 mM MgCl2, 1 mM EGTA. The final 10 μL Kinase Reaction consists of 0.29-6 ng PAK2 (PAK65) and 2 μM Ser/Thr 20 in 50 mM HEPES pH 7.5, 0.01% BRIJ-35, 10 mM MgCl2, 1 mM EGTA.
as §2, §3, §4, §5, §6, §7, §8

PAK3 = PAK3 (Homo sapiens, UniProt O75914); assay: In vitro PAK inhibition assay (Z'-LYTE, SelectScreen), PAK3
Protocol: as §1
The 2×PAK3/Ser/Thr 20 mixture is prepared in 50 mM HEPES pH 7.5, 0.01% BRIJ-35, 10 mM MgCl2, 1 mM EGTA.
as §2, §3, §4, §5, §6, §7, §8

PAK4 = PAK4 (Homo sapiens, UniProt O96013); assay: In vitro PAK inhibition assay (Z'-LYTE, SelectScreen), PAK4
Protocol: as §1
The 2×PAK-4/Ser/Thr 20 mixture is prepared in 50 mM HEPES pH 7.5, 0.01% BRIJ-35, 10 mM MgCl2, 1 mM EGTA. The final 10 μL Kinase Reaction consists of 0.1-0.75 ng PAK-4 and 2 μM Ser/Thr 20 in 50 mM HEPES pH 7.5, 0.01% BRIJ-35, 10 mM MgCl2, 1 mM EGTA. After the 1 hour Kinase Reaction incubation, 5 μL of a 1:256 dilution of Development Reagent A is added.
as §2, §3, §4, §5, §6
SelectScreen® Kinase Profiling Service uses XLfit from IDBS. The dose response curve is curve fit to model number 205 (sigmoidal dose-response model).
The table below provides specifications and data around each kinase. The representative IC50 value with a known inhibitor for each kinase was determined at the ATP bin nearest to the ATP Km app.

PAK4, sequence (O96013 whole entry): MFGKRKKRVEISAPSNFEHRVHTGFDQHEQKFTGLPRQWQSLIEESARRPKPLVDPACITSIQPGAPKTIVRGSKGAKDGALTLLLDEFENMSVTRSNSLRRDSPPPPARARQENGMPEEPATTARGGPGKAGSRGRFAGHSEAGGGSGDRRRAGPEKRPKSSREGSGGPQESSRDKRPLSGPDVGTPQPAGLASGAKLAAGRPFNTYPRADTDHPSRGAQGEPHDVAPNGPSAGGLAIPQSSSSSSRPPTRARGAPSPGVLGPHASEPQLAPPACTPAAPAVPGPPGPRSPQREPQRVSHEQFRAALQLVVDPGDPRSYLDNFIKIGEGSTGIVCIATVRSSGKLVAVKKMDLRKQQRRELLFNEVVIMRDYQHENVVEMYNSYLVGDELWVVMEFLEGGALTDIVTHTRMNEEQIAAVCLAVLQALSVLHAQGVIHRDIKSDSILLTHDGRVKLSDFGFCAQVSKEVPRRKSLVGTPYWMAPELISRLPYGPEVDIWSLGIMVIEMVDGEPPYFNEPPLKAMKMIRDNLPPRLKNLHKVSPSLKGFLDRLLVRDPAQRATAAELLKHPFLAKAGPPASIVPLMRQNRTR
PAK2 (PAK65), sequence (Q13177 whole entry): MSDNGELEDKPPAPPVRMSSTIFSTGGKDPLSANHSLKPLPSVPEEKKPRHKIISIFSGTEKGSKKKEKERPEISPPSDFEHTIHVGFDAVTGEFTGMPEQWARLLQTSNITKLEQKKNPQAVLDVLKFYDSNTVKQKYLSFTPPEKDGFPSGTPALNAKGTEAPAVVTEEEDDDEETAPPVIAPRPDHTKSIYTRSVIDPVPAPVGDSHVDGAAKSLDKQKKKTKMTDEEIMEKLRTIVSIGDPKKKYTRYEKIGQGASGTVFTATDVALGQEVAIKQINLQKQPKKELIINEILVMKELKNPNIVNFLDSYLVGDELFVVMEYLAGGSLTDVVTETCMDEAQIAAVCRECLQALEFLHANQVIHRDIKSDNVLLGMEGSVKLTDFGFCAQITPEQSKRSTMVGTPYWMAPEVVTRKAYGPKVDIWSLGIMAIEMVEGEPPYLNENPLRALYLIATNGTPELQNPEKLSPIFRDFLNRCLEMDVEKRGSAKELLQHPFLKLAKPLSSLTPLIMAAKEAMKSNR
PAK3, sequence (O75914 1-544 isoform O75914-2): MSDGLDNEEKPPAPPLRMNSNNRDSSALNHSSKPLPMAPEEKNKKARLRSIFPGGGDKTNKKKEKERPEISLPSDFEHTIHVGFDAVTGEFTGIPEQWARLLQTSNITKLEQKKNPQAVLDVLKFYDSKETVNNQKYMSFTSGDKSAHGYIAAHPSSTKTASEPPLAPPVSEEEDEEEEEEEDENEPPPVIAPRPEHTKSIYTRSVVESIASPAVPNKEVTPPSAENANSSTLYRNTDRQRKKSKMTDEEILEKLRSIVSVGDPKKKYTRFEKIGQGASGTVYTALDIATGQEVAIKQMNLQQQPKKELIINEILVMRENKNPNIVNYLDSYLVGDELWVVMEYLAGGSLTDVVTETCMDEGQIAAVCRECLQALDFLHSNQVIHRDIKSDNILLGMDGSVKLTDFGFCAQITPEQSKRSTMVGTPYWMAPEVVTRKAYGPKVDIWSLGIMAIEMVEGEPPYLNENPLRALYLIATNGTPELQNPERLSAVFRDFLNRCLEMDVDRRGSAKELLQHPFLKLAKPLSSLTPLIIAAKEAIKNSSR
PAK1, sequence (Q13153 whole entry): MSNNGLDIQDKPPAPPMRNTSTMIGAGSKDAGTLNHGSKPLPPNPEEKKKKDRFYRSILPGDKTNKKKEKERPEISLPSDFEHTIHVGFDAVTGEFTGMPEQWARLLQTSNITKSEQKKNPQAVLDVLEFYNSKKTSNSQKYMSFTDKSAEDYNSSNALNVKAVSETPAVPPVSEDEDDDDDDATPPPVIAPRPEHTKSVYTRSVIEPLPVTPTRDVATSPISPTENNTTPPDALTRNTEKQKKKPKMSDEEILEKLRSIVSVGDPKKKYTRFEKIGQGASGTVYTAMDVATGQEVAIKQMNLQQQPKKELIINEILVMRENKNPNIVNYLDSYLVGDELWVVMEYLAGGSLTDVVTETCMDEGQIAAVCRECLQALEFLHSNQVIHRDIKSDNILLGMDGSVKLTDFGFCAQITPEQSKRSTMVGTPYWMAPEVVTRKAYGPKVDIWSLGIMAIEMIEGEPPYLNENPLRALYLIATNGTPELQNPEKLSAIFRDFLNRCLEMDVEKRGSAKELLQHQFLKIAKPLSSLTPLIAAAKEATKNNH

SMILES	IC50 (PAK1)	IC50 (PAK2 (PAK65))	IC50 (PAK3; read-out: PAK3 IC50)	IC50 (PAK4)	IC50 (PAK3; PAK3 IC50 (nM))
Cc1nccnc1-c1ccc(-c2cc3cnc(NC4CCOCC4)nc3n(C3CCCC3)c2=O)c(Cl)c1 [Example 88, 6-(2-chloro-4-(3-methylpyrazin-2-yl)phenyl)-8-cyclopentyl-2-((tetrahydro-2H-pyran-4-yl)amino)pyrido[2,3-d]pyrimidin-7(8H)-one]	50 to 500 nM	50 to 500 nM	50 to 500 nM	> 5000 nM	
Cc1cncc(-c2ccc(-c3cc4cnc(NC5CCCCC5)nc4n([C@H]4CC[C@H](N)CC4)c3=O)c(Cl)c2)n1 [Example 114]	< 50 nM	< 50 nM	50 to 500 nM	> 5000 nM	
Cc1nccnc1-c1ccc(-c2cc3cnc(N[C@H]4CCOC4)nc3n(Cc3ccncc3)c2=O)c(Cl)c1 [Example 126]	50 to 500 nM	50 to 500 nM	50 to 500 nM	> 5000 nM	
CCn1c(=O)c(-c2ccc(-c3cnccc3C)cc2Cl)cc2cnc(NC3CCOCC3)nc21 [Example 47]	50 to 500 nM	500 to 5000 nM	50 to 500 nM	> 5000 nM	
CCn1c(=O)c(-c2ccc(-c3cncc(C)n3)cc2Cl)cc2cnc(NCCCC3CCN(C)CC3)nc21 [Example 68]	50 to 500 nM	50 to 500 nM	50 to 500 nM	> 5000 nM	
Cc1cncc(-c2ccc(-c3cc4cnc(NC5CC5)nc4n(CCN)c3=O)c(Cl)c2)n1 [Example 111]	50 to 500 nM	50 to 500 nM	50 to 500 nM	> 5000 nM	
CCn1c(=O)c(-c2ccc(-c3cncc(C)n3)cc2Cl)cc2cnc(NC3CCOC(C)(C)C3)nc21 (centres unmarked) [Example 31]	50 to 500 nM	50 to 500 nM	50 to 500 nM	> 5000 nM	
COCCn1c(=O)c(-c2ccc(-c3cnccn3)cc2Cl)cc2cnc(NC3CCOC3)nc21 (centres unmarked) [Example 53]	50 to 500 nM	50 to 500 nM	500 to 5000 nM	> 5000 nM	
CCn1c(=O)c(-c2cc(C)c(-c3noc(C)n3)cc2Cl)cc2cnc(N[C@@H]3CCOC3)nc21 [Example 73]	500 to 5000 nM	500 to 5000 nM	500 to 5000 nM	> 5000 nM	
CCn1c(=O)c(-c2ccc(-c3cncc(C)n3)cc2Cl)cc2cnc(NCCCOCCCN)nc21 [Example 129]	< 50 nM	< 50 nM	50 to 500 nM	> 5000 nM	
CCn1c(=O)c(-c2ccc(-c3cccnc3F)cc2Cl)cc2cnc(N[C@H]3CCOC3)nc21 [Example 41]	< 50 nM	50 to 500 nM	50 to 500 nM	> 5000 nM	
CCn1c(=O)c(-c2ccc(-c3cnccc3C)cc2Cl)cc2cnc(N[C@@H]3CCOC3)nc21 [Example 49]	50 to 500 nM	500 to 5000 nM	500 to 5000 nM	> 5000 nM	
CCn1c(=O)c(-c2ccc(-c3cncc(C)n3)cc2Cl)cc2cnc(NC3C[C@@H](C)O[C@@H](C)C3)nc21 (some centres unmarked) [Example 37]	< 50 nM	50 to 500 nM	50 to 500 nM	> 5000 nM	
CCn1c(=O)c(-c2ccc(-c3cccnc3)cc2Cl)cc2cnc(N[C@@H]3CCOC3)nc21 [Example 51]	50 to 500 nM	50 to 500 nM	500 to 5000 nM	> 5000 nM	
CCn1c(=O)c(-c2ccc(-c3nccnc3C)cc2Cl)cc2cnc(NC3CCOC(C)C3)nc21 (centres unmarked) [Example 32]	50 to 500 nM	< 50 nM	50 to 500 nM	> 5000 nM	
Cc1cncc(-c2ccc(-c3cc4cnc(N[C@@H]5CCOC5)nc4n(CCCN(C)C)c3=O)c(Cl)c2)n1 [Example 101]	< 50 nM	< 50 nM	50 to 500 nM	> 5000 nM	
CCn1c(=O)c(-c2ccc(-c3cccnc3C)cc2Cl)cc2cnc(N[C@@H]3CCOC3)nc21 [Example 59]	500 to 5000 nM	500 to 5000 nM	500 to 5000 nM	> 5000 nM	
Cc1cncc(-c2ccc(-c3cc4cnc(N[C@@H]5CCOC5)nc4n(CCCN)c3=O)c(Cl)c2)n1 [Example 97]	50 to 500 nM	< 50 nM	50 to 500 nM	> 5000 nM	
CCn1c(=O)c(-c2ccc(-c3cncc(C)n3)cc2Cl)cc2cnc(N[C@H]3CCCNC3=O)nc21 [Example 69]	> 5000 nM	> 5000 nM	> 5000 nM	> 5000 nM	
Cc1nccnc1-c1ccc(-c2cc3cnc(N[C@@H]4CCOC4)nc3n(Cc3ccccn3)c2=O)c(Cl)c1 [Example 123]	50 to 500 nM	< 50 nM	50 to 500 nM	> 5000 nM	
CCn1c(=O)c(-c2ccc(-c3nccnc3C)cc2Cl)cc2cnc(NCCC3CCNCC3)nc21 [Example 136]	< 50 nM	< 50 nM	50 to 500 nM	> 5000 nM	
Cc1cncc(-c2ccc(-c3cc4cnc(N[C@H]5CCOC5)nc4n(C4CCNCC4)c3=O)c(Cl)c2)n1 [Example 106]	50 to 500 nM	50 to 500 nM	50 to 500 nM	> 5000 nM	
CCn1c(=O)c(-c2ccc(-c3ccnnc3)cc2Cl)cc2cnc(N[C@@H]3CCOC3)nc21 [Example 62]	> 5000 nM	> 5000 nM	> 5000 nM	> 5000 nM	
CCn1c(=O)c(-c2ccc(-c3cncc(C)n3)cc2Cl)cc2cnc(NCCC3CCN(C)CC3)nc21 [Example 67]				> 5000 nM	50 to 500 nM
CCn1c(=O)c(-c2cc(C)c(-c3noc(C)n3)cc2Cl)cc2cnc(N[C@@H]3CCOC3)nc21 [Example 92]			50 to 500 nM		

Second part, the compound after the results:

IC50 (PAK1)	IC50 (PAK2 (PAK65))	IC50 (PAK3; read-out: PAK3 IC50)	IC50 (PAK4)	IC50 (PAK3; PAK3 IC50 (nM))	SMILES
< 50 nM	< 50 nM	< 50 nM	> 5000 nM		Cc1nccnc1-c1ccc(-c2cc3cnc(NC4CC4)nc3n([C@H]3CC[C@H](N)CC3)c2=O)c(Cl)c1 [Example 119]
< 50 nM	50 to 500 nM	50 to 500 nM	> 5000 nM		Cc1cncc(-c2ccc(-c3cc4cnc(NC5CCOCC5)nc4n(Cc4ccccc4Cl)c3=O)c(Cl)c2)n1 [Example 42]
< 50 nM	< 50 nM	< 50 nM	> 5000 nM		Cc1cncc(-c2ccc(-c3cc4cnc(N[C@H]5CCOC5)nc4n(CCCN)c3=O)c(Cl)c2)n1 [Example 98]
50 to 500 nM	< 50 nM	50 to 500 nM	> 5000 nM		Cc1cncc(-c2ccc(-c3cc4cnc(NC5CCOCC5)nc4n(Cc4ccccc4)c3=O)c(Cl)c2)n1 [Example 34]
> 5000 nM	> 5000 nM	50 to 500 nM	> 5000 nM		Cc1cnc(-c2ccc(-c3cc4cnc(NC5CCOCC5)nc4[nH]c3=O)c(Cl)c2)s1 [Example 14]
< 50 nM	< 50 nM	< 50 nM	500 to 5000 nM		Cc1cncc(-c2ccc(-c3cc4cnc(NC5CC5)nc4n([C@H]4CC[C@H](N)CC4)c3=O)c(Cl)c2)n1 [Example 112]
50 to 500 nM	50 to 500 nM	50 to 500 nM	> 5000 nM		CCn1c(=O)c(-c2ccc(-c3nccnc3C)cc2Cl)cc2cnc(NC3CCSCC3)nc21 [Example 18]
50 to 500 nM	50 to 500 nM	50 to 500 nM	> 5000 nM		Cc1cncc(-c2ccc(-c3cc4cnc(N[C@H]5CCOC5)nc4n(C4CCN(C)CC4)c3=O)c(Cl)c2)n1 [Example 108]
< 50 nM	< 50 nM	< 50 nM	500 to 5000 nM		Cc1cncc(-c2ccc(-c3cc4cnc(NC(C)C)nc4n([C@H]4CC[C@H](N)CC4)c3=O)c(Cl)c2)n1 [Example 116]
< 50 nM	50 to 500 nM	< 50 nM	> 5000 nM		CCn1c(=O)c(-c2ccc(-c3cccnc3F)cc2Cl)cc2cnc(NC3CCOCC3)nc21 [Example 12]
< 50 nM	< 50 nM	< 50 nM	500 to 5000 nM		CCNc1ncc2cc(-c3ccc(-c4cncc(C)n4)cc3Cl)c(=O)n([C@H]3CC[C@H](N)CC3)c2n1 [Example 117]
< 50 nM	< 50 nM	< 50 nM	> 5000 nM		CCn1c(=O)c(-c2ccc(-c3cncc(C)n3)cc2Cl)cc2cnc(NCCC3CCNCC3)nc21 [Example 135]
